Measurements from PubChem BioAssay AID2060904 (Molecular Pharmacology Branch, DTP, NCI, 2025).

Tested on: 349418-098-R-PDC complex spheroid viability
Assay: Anticancer human tumor 349418-098-R-PDC patient-derived lung adenocarcinoma cell line growth inhibition [RAS]
Details: for IC50: curve of first compound; for viability, T/C: stronger effect = lower value
Method in brief: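 Multi-cell-type spheroids: tumor cells plus HUVEC endothelial cells and mesenchymal stem cells. RAS-pathway inhibitors were combined with targeted agents, each dosed in half-log steps down from clinical Cmax, or from 10 microM when Cmax was unknown.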

[1] = second compound 0.000949 µM, first compound 0.0316 µM
[2] = second compound 0.000949 µM, first compound 0.1 µM
[3] = second compound 0.000949 µM, first compound 0.316 µM
[4] = second compound 0.000949 µM, first compound 1 µM
[5] = second compound 0.003 µM, first compound 0.0316 µM
[6] = second compound 0.003 µM, first compound 0.1 µM
[7] = second compound 0.003 µM, first compound 0.316 µM
[8] = second compound 0.003 µM, first compound 1 µM
[9] = second compound 0.00949 µM, first compound 0.0316 µM
[10] = second compound 0.00949 µM, first compound 0.1 µM
[11] = second compound 0.00949 µM, first compound 0.316 µM
[12] = second compound 0.00949 µM, first compound 1 µM
[13] = second compound 0.03 µM, first compound 0.0316 µM
[14] = second compound 0.03 µM, first compound 0.1 µM
[15] = second compound 0.03 µM, first compound 0.316 µM
[16] = second compound 0.03 µM, first compound 1 µM
[17] = second compound 0.0949 µM, first compound 0.0316 µM
[18] = second compound 0.0949 µM, first compound 0.1 µM
[19] = second compound 0.0949 µM, first compound 0.316 µM
[20] = second compound 0.0949 µM, first compound 1 µM
[21] = second compound 0.3 µM, first compound 0.0316 µM
[22] = second compound 0.3 µM, first compound 0.1 µM
[23] = second compound 0.3 µM, first compound 0.316 µM
[24] = second compound 0.3 µM, first compound 1 µM
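Note: spheroids exposed to compound for seven days before viability readout.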

## CC(=O)OC12COC1CC(O)C1(C)C(=O)C(O)C3=C(C)C(OC(=O)C(O)C(NC(=O)OC(C)(C)C)c4ccccc4)CC(O)(C(OC(=O)c4ccccc4)C21)C3(C)C (stereo unspecified) + CCn1c(-c2cc(N3CCN(C)CC3)cnc2C(C)OC)c2c3cc(ccc31)-c1csc(n1)CC(NC(=O)C1CC1C)C(=O)N1CCCC(N1)C(=O)OCC(C)(C)C2
Second compound 0.000949 µM
  IC50: < 31.6 nM
Second compound 0.003 µM
  IC50: < 31.6 nM
Second compound 0.00949 µM
  IC50: < 31.6 nM
Second compound 0.03 µM
  IC50: < 31.6 nM
Second compound 0.0949 µM
  IC50: < 31.6 nM
Second compound 0.3 µM
  IC50: < 31.6 nM
[1]
  viability, T/C: 12.3%
[2]
  viability, T/C: 12.4%
[3]
  viability, T/C: 14.2%
[4]
  viability, T/C: 13.5%
Second compound 0.000949 µM, first compound 3.16 µM
  viability, T/C: 17.1%
Second compound 0.000949 µM, first compound 10 µM
  viability, T/C: 19.4%
[5]
  viability, T/C: 14.3%
[6]
  viability, T/C: 11.3%
[7]
  viability, T/C: 13.8%
[8]
  viability, T/C: 13.4%
Second compound 0.003 µM, first compound 3.16 µM
  viability, T/C: 15.2%
Second compound 0.003 µM, first compound 10 µM
  viability, T/C: 22.9%
[9]
  viability, T/C: 14.9%
[10]
  viability, T/C: 16.2%
[11]
  viability, T/C: 13.8%
[12]
  viability, T/C: 16%
Second compound 0.00949 µM, first compound 3.16 µM
  viability, T/C: 18.8%
Second compound 0.00949 µM, first compound 10 µM
  viability, T/C: 17.1%
[13]
  viability, T/C: 14.4%
[14]
  viability, T/C: 12.8%
[15]
  viability, T/C: 15.9%
[16]
  viability, T/C: 18%
Second compound 0.03 µM, first compound 3.16 µM
  viability, T/C: 18%
Second compound 0.03 µM, first compound 10 µM
  viability, T/C: 19.1%
[17]
  viability, T/C: 11.5%
[18]
  viability, T/C: 14.2%
[19]
  viability, T/C: 14.5%
[20]
  viability, T/C: 14.3%
Second compound 0.0949 µM, first compound 3.16 µM
  viability, T/C: 17.3%
Second compound 0.0949 µM, first compound 10 µM
  viability, T/C: 18%
[21]
  viability, T/C: 15.2%
[22]
  viability, T/C: 12.8%
[23]
  viability, T/C: 17.8%
[24]
  viability, T/C: 16.8%
Second compound 0.3 µM, first compound 3.16 µM
  viability, T/C: 21.4%
Second compound 0.3 µM, first compound 10 µM
  viability, T/C: 18.4%

## CCc1c2c(nc3ccc(O)cc13)-c1cc3c(c(=O)n1C2)COC(=O)[C@]3(O)CC + CCn1c(-c2cc(N3CCN(C)CC3)cnc2C(C)OC)c2c3cc(ccc31)-c1csc(n1)CC(NC(=O)C1CC1C)C(=O)N1CCCC(N1)C(=O)OCC(C)(C)C2
Second compound 0.000949 µM
  IC50: 2.48 nM
Second compound 0.003 µM
  IC50: 2.46 nM
Second compound 0.00949 µM
  IC50: 3.33 nM
Second compound 0.03 µM
  IC50: 2.31 nM
Second compound 0.0949 µM
  IC50: 2.78 nM
Second compound 0.3 µM
  IC50: 2.42 nM
Second compound 0.000949 µM, first compound 0.000949 µM
  viability, T/C: 88%
Second compound 0.000949 µM, first compound 0.003 µM
  viability, T/C: 42.6%
Second compound 0.000949 µM, first compound 0.00949 µM
  viability, T/C: 12.3%
Second compound 0.000949 µM, first compound 0.03 µM
  viability, T/C: 6.15%
Second compound 0.000949 µM, first compound 0.0949 µM
  viability, T/C: 2.77%
Second compound 0.000949 µM, first compound 0.3 µM
  viability, T/C: 1.87%
Second compound 0.003 µM, first compound 0.000949 µM
  viability, T/C: 80.7%
Second compound 0.003 µM, first compound 0.003 µM
  viability, T/C: 43.8%
Second compound 0.003 µM, first compound 0.00949 µM
  viability, T/C: 13.4%
Second compound 0.003 µM, first compound 0.03 µM
  viability, T/C: 5.78%
Second compound 0.003 µM, first compound 0.0949 µM
  viability, T/C: 2.15%
Second compound 0.003 µM, first compound 0.3 µM
  viability, T/C: 1.76%
Second compound 0.00949 µM, first compound 0.000949 µM
  viability, T/C: 84.5%
Second compound 0.00949 µM, first compound 0.003 µM
  viability, T/C: 53.7%
Second compound 0.00949 µM, first compound 0.00949 µM
  viability, T/C: 13.5%
Second compound 0.00949 µM, first compound 0.03 µM
  viability, T/C: 6.16%
Second compound 0.00949 µM, first compound 0.0949 µM
  viability, T/C: 3.17%
Second compound 0.00949 µM, first compound 0.3 µM
  viability, T/C: 1.91%
Second compound 0.03 µM, first compound 0.000949 µM
  viability, T/C: 90.9%
Second compound 0.03 µM, first compound 0.003 µM
  viability, T/C: 38%
Second compound 0.03 µM, first compound 0.00949 µM
  viability, T/C: 11.6%
Second compound 0.03 µM, first compound 0.03 µM
  viability, T/C: 5.22%
Second compound 0.03 µM, first compound 0.0949 µM
  viability, T/C: 2.72%
Second compound 0.03 µM, first compound 0.3 µM
  viability, T/C: 2.61%
Second compound 0.0949 µM, first compound 0.000949 µM
  viability, T/C: 88.9%
Second compound 0.0949 µM, first compound 0.003 µM
  viability, T/C: 47.3%
Second compound 0.0949 µM, first compound 0.00949 µM
  viability, T/C: 17.3%
Second compound 0.0949 µM, first compound 0.03 µM
  viability, T/C: 6.18%
Second compound 0.0949 µM, first compound 0.0949 µM
  viability, T/C: 2.99%
Second compound 0.0949 µM, first compound 0.3 µM
  viability, T/C: 1.97%
Second compound 0.3 µM, first compound 0.000949 µM
  viability, T/C: 87.1%
Second compound 0.3 µM, first compound 0.003 µM
  viability, T/C: 41%
Second compound 0.3 µM, first compound 0.00949 µM
  viability, T/C: 19.7%
Second compound 0.3 µM, first compound 0.03 µM
  viability, T/C: 7.26%
Second compound 0.3 µM, first compound 0.0949 µM
  viability, T/C: 3.82%
Second compound 0.3 µM, first compound 0.3 µM
  viability, T/C: 1.95%

## Nc1ccn(C2OC(CO)C(O)C2(F)F)c(=O)n1 (stereo unspecified) + CCn1c(-c2cc(N3CCN(C)CC3)cnc2C(C)OC)c2c3cc(ccc31)-c1csc(n1)CC(NC(=O)C1CC1C)C(=O)N1CCCC(N1)C(=O)OCC(C)(C)C2
Second compound 0.000949 µM
  IC50: < 3.16 nM
Second compound 0.003 µM
  IC50: < 3.16 nM
Second compound 0.00949 µM
  IC50: < 3.16 nM
Second compound 0.03 µM
  IC50: < 3.16 nM
Second compound 0.0949 µM
  IC50: < 3.16 nM
Second compound 0.3 µM
  IC50: < 3.16 nM
Second compound 0.000949 µM, first compound 0.00316 µM
  viability, T/C: 33.4%
Second compound 0.000949 µM, first compound 0.01 µM
  viability, T/C: 6.66%
[1]
  viability, T/C: 5.75%
[2]
  viability, T/C: 4.77%
[3]
  viability, T/C: 5.22%
[4]
  viability, T/C: 4.87%
Second compound 0.003 µM, first compound 0.00316 µM
  viability, T/C: 21.9%
Second compound 0.003 µM, first compound 0.01 µM
  viability, T/C: 6.3%
[5]
  viability, T/C: 5.15%
[6]
  viability, T/C: 4.81%
[7]
  viability, T/C: 4.73%
[8]
  viability, T/C: 4.09%
Second compound 0.00949 µM, first compound 0.00316 µM
  viability, T/C: 24.4%
Second compound 0.00949 µM, first compound 0.01 µM
  viability, T/C: 6.44%
[9]
  viability, T/C: 5.46%
[10]
  viability, T/C: 4.39%
[11]
  viability, T/C: 5.27%
[12]
  viability, T/C: 4.67%
Second compound 0.03 µM, first compound 0.00316 µM
  viability, T/C: 29%
Second compound 0.03 µM, first compound 0.01 µM
  viability, T/C: 9.12%
[13]
  viability, T/C: 4.98%
[14]
  viability, T/C: 5.4%
[15]
  viability, T/C: 5.08%
[16]
  viability, T/C: 5.39%
Second compound 0.0949 µM, first compound 0.00316 µM
  viability, T/C: 43.2%
Second compound 0.0949 µM, first compound 0.01 µM
  viability, T/C: 10.6%
[17]
  viability, T/C: 4.96%
[18]
  viability, T/C: 5.29%
[19]
  viability, T/C: 5.26%
[20]
  viability, T/C: 4.88%
Second compound 0.3 µM, first compound 0.00316 µM
  viability, T/C: 46.8%
Second compound 0.3 µM, first compound 0.01 µM
  viability, T/C: 16.9%
[21]
  viability, T/C: 6.97%
[22]
  viability, T/C: 5.92%
[23]
  viability, T/C: 5.96%
[24]
  viability, T/C: 5.73%
